Laboratory results: US4695569A, “Bicyclic heterocyclyl containing N-(bicyclic heterocyclyl)-4-piperidinamines” (Janssen Pharmaceutica N.V., priority 1987, dated 1987)
Where a name gives a salt, the structure may show the parent alone. Read-outs that look alike come from different tables or passages of the source.

Key:
[1] = tested on: serotonin; settings: known serotonin-antagonists, rats treated with compound 48/80; cited from earlier work
[2] = tested on: compound 48/80-induced lethality; experiment: Protection of rats from compound 48/80-induced lethality; assay type: in vivo, rat (male, inbred Wistar strain); settings: Rattus norvegicus, 4 h, read-out: Compound 48/80 lethality test in rats-ED50
Method: Protection of rats from compound 48/80-induced lethality
The protection from compound 48/80-induced lethal circulatory collapse appears to be a simple way of evaluating quantitatively the antihistaminic activity of test compounds. Male rats of an inbred Wistar strain, weighing 240-260 g were used in the experiment. After overnight starvation the rats were transferred to conditioned laboratories (temp.=21±1° C., relative humidity=65±5%).
The rats were treated subcutaneously or orally with a test compound or with the solvent (NaCl solution, 0.9%). […] Survival after 4 hours is therefore considered to be a safe criterion of a protective effect of drug administration.
The ED50 -values of the compounds of formula (I) are listed in the first column of table 1. Said ED50 -values are the values in mg/kg body weight at which the tested compounds protect 50% of the tested animals against compound 48/80-induced lethality.

[3] = tested on: serotonin; experiment: Antagonistic activity on the effects of serotonin in the gastric lesion test (lesions induced by compound 48/80); assay type: in vivo, rat (male, Wistar inbred strain)
Excerpt: The compounds of formula (I) and the pharmaceutically acceptable acid addition salts thereof are also potent serotonin-antagonists. The potency of the subject compounds as serotonin-antagonists is clearly evidenced by the results obtained in the following tests wherein the antagonistic activity of the subject compounds on the effect of serotonin is examined.
Antagonistic activity on the effects of serotonin in the gastric lesion test
Comound 48/80 (a mixture of oligomers obtained by condensation of 4-methoxy-N-methylbenzeneethanamine and formaldehyde) is a potent releaser of vasoactive amines from endogenous stores such as, for example, histamine and serotonin. […] The shock, followed by dead, can be avoided if the rats are pretreated with a classical H 1 antagonist.
Male rats of a Wistar inbred strain, weighing 220-250 g, were starved overnight, water being available ad libitum. The test compounds were administered orally as a solution or as a suspension in aqueous medium. A control rat and a "blank" rat received the test compound. One hour later 5-[4-(diphenylmethyl)-1-piperazinylmethyl]-1-methyl-1H-benzimidazole-2-methanol was administered subcutaneously to all rats at the dose of 2.5 mg/kg.
Four hours after the intravenous injection of compound 48/80, the rats were decapitated and the stomachs were removed. Subsequently the stomachs ere inspected for distension and contents (blood, fluid, food) and thoroughly rinsed. The macroscopic lesions were scored from 0 to +++, 0 corresponding to complete absence of visible lesions and the highest score corresponding to reddish rough patches covering more than half the glandular area.

[4] = Rattus norvegicus, po, 4 h; read-out: gastric lesion test ED50 (distension of the stomach and lesions in the glandular area completely absent in 50% of rats)
[5] = Rattus norvegicus, po, 4 h, read-out: gastric lesion test ED50 (distension of the stomach and lesions in the glandular area completely absent in 50% of rats)

Compound: NC(=O)C1(N2CCCCC2)CCN(CCCC(=O)c2ccc(F)cc2)CC1 [pipamperone]
- prevention of cyanosis of ears and extremities, lesions in the glandular area of the stomach and abnormal gastric distension [1]: prevent completely

Compound: CN1CCN2c3ccccc3Cc3ccccc3C2C1 (centres unmarked) [mianserin]
- prevention of cyanosis of ears and extremities, lesions in the glandular area of the stomach and abnormal gastric distension [1]: prevent completely

Compound: CN1C[C@H](CNC(=O)OCc2ccccc2)C[C@@H]2c3cccc4c3c(cn4C)C[C@H]21 [metergoline]
- prevention of cyanosis of ears and extremities, lesions in the glandular area of the stomach and abnormal gastric distension [1]: prevent completely

Compound: CC[C@@H](CO)NC(=O)[C@@H]1C=C2c3cccc4c3c(cn4C)C[C@H]2N(C)C1 [methysergide]
- prevention of cyanosis of ears and extremities, lesions in the glandular area of the stomach and abnormal gastric distension [1]: prevent completely

Compound: Fc1ccc(Cn2c(NC3CCN(CCNc4ncnc5[nH]cnc45)CC3)nc3ccccc32)cc1 [Compound 97]
- ED50 [2]: 0.08 mg/kg
- ED50 [3, 4]: 0.04 mg/kg

Compound: Cc1cc(C)n2c(=O)c(CCN3CCC(Nc4nc5cccnc5n4Cc4ccco4)CC3)c(C)nc2c1 [Compound 77]
- ED50 [2]: 0.16 mg/kg
- ED50 [3, 4]: 0.31 mg/kg

Compound: Cc1nc2ccccn2c(=O)c1CCN1CCC(Nc2nc3cccnc3n2Cc2ccccn2)CC1 [Compound 55]
- ED50 [2]: 0.08 mg/kg
- ED50 [3, 4]: 0.16 mg/kg

Compound: Cc1nc2ccccn2c(=O)c1CCN1CCC(Nc2nc3cccnc3n2Cc2ccco2)CC1 [Compound 6]
- ED50 [2]: 0.08 mg/kg
- ED50 [3, 4]: 0.63 mg/kg

Compound: c1ccc(Cn2c(NC3CCN(CCNc4nc5cnccc5[nH]4)CC3)nc3ccccc32)nc1 [Compound 115]
- ED50 [2]: 0.02 mg/kg
- ED50 [3, 5]: 0.16 mg/kg

Compound: O=C(CCCN1CCC2(CC1)C(=O)NCN2c1ccccc1)c1ccc(F)cc1 [spiperone]
- prevention of cyanosis of ears and extremities, lesions in the glandular area of the stomach and abnormal gastric distension [1]: prevent completely

Compound: CN1CCC(=C2c3ccccc3C=Cc3ccccc32)CC1 [cyproheptadine]
- prevention of cyanosis of ears and extremities, lesions in the glandular area of the stomach and abnormal gastric distension [1]: prevent completely

Compound: Cc1nc2n(c(=O)c1CCN1CCC(Nc3nc4ccccc4n3Cc3ccc(F)cc3)CC1)CCS2 [Compound 17]
- ED50 [2]: 0.31 mg/kg
- ED50 [3, 4]: 0.63 mg/kg

Compound: Cc1nc2n(c(=O)c1CCN1CCC(Nc3nc4ccccc4n3Cc3cscn3)CC1)CCCC2 [Compound 62]
- ED50 [2]: 0.04 mg/kg
- ED50 [3, 5]: 0.63 mg/kg

Compound: Cc1nc2ccccn2c(=O)c1CCN1CCC(Nc2nc3ccccc3n2Cc2cccs2)CC1 [Compound 52]
- ED50 [2]: 0.31 mg/kg
- ED50 [3, 5]: 1.25 mg/kg

Compound: Fc1ccc(Cn2c(NC3CCN(Cc4cn5ccccc5n4)CC3)nc3ccccc32)cc1 [Compound 41]
- ED50 [2]: 0.16 mg/kg
- ED50 [3, 4]: 0.63 mg/kg

Compound: Cc1nc2ccccn2c(=O)c1CCN1CCC(Nc2nc3ccccc3n2Cc2ccco2)CC1 [Compound 5]
- ED50 [2]: 0.16 mg/kg
- ED50 [3, 4]: 0.04 mg/kg

Compound: Fc1ccc(Cn2c(NC3CCN(CCn4c(=S)[nH]c5ccccc54)CC3)nc3ccccc32)cc1 [Compound 142, 1-[2-[4-[[1-[(4-fluorophenyl)methyl]-1H-benzimidazole-2-yl]amino]-1-piperidinyl]ethyl]-1,3-dihydro-2H-benzimidazole-2-thione]
- ED50 [2]: 0.16 mg/kg
- ED50 [3, 4]: 0.63 mg/kg

Compound: Fc1ccc(Cn2c(NC3CCN(CCNc4nc5cnccc5s4)CC3)nc3ccccc32)cc1 [Compound 104, N-[2-[4-[[1-[(4-fluorophenyl)methyl]-1H-benzimidazol-2-yl]amino]-1-piperidinyl]ethyl]thiazolo[4,5-c]pyridin-2-amine]
- ED50 [2]: 0.16 mg/kg
- ED50 [3, 4]: 0.31 mg/kg

Compound: CN1CCC(=C2c3ccccc3CCc3sccc32)CC1 [pizotifen]
- prevention of cyanosis of ears and extremities, lesions in the glandular area of the stomach and abnormal gastric distension [1]: prevent completely

Compound: Fc1ccc(Cn2c(NC3CCN(CCNc4ncnc5c4ncn5Cc4ccccc4)CC3)nc3ccccc32)cc1 [Compound 95]
- ED50 [2]: 0.16 mg/kg
- ED50 [3, 4]: 0.63 mg/kg

Compound: Fc1ccc(Cn2c(NC3CCN(CCNc4nc5ncccc5[nH]4)CC3)nc3ccccc32)cc1 [Compound 110]
- ED50 [2]: 0.16 mg/kg
- ED50 [3, 4]: 0.31 mg/kg

Compound: O=c1[nH]c2ccccc2c(=O)n1CCN1CCC(Nc2nc3ccccc3n2Cc2ccco2)CC1 [Compound 24]
- ED50 [2]: 0.08 mg/kg
- ED50 [3, 4]: 0.63 mg/kg

Compound: CN(C)CCCSc1ccccc1NC(=O)/C=C/c1ccccc1 [cinanserin]
- prevention of cyanosis of ears and extremities, lesions in the glandular area of the stomach and abnormal gastric distension [1]: prevent completely

Compound: Cn1cnc2c1c(=O)n(CCN1CCC(Nc3nc4ccccc4n3Cc3ccco3)CC1)c(=O)n2C [Compound 11]
- ED50 [2]: 0.08 mg/kg
- ED50 [3, 4]: 0.04 mg/kg

Compound: Fc1ccc(Cn2c(NC3CCN(CCCCNc4nc5cnccc5[nH]4)CC3)nc3ccccc32)cc1 [Compound 121, N-[4-[4-[[1-[(4-fluorophenyl)methyl]-1H-benzimidazol-2-yl]amino]-1-piperidinyl]butyl]-1H-imidazo[4,5-c]pyridin-2-amine]
- ED50 [2]: 0.02 mg/kg
- ED50 [3, 4]: 0.02 mg/kg

Compound: Cc1nc2nc(NCCN3CCC(Nc4nc5ccccc5n4Cc4ccc(F)cc4)CC3)ccc2[nH]1 [Compound 146, N-[2-[4-[[1-[(4-fluorophenyl)methyl]-1H-benzimidazol-2-yl]amino]-1-piperidinyl]ethyl]-2-methyl-1H-imidazo[4,5-b]pyridin-5-amine]
- ED50 [2]: 0.04 mg/kg
- ED50 [3, 4]: 0.08 mg/kg

Compound: Fc1ccc(Cn2c(NC3CCN(CCn4c(=S)[nH]c5cncnc54)CC3)nc3ccccc32)cc1 [Compound 143, 9-[2-[4-[[1-[(4-fluorophenyl)methyl]-1H-benzimidazol-2-yl]amino]-1-piperidinyl]ethyl]-7,9-dihydro-8H-purine-8-thione trihydrochloride.dihydrate]
- ED50 [2]: 0.31 mg/kg
- ED50 [3, 4]: 0.63 mg/kg

Compound: Cc1nc2ccccn2c(=O)c1CCN1CCC(Nc2nc3ccccc3n2Cc2ccc(F)cc2)CC1 [Compound 4]
- ED50 [2]: 0.16 mg/kg
- ED50 [3, 5]: 0.31 mg/kg

Compound: Cc1nc2n(c(=O)c1CCN1CCC(Nc3nc4ccccc4n3Cc3ccco3)CC1)CCS2 [Compound 18]
- ED50 [2]: 0.08 mg/kg
- ED50 [3, 4]: 0.16 mg/kg

Compound: Cc1nc2ccccn2c(=O)c1CCN1CCC(Nc2nc3cc(F)c(F)cc3n2Cc2ccc(F)cc2)CC1 [Compound 70]
- ED50 [2]: 0.31 mg/kg
- ED50 [3, 4]: 0.63 mg/kg

Compound: Cc1nc2scc(C)n2c(=O)c1CCN1CCC(Nc2nc3cccnc3n2Cc2ccc(F)cc2)CC1 [Compound 7]
- ED50 [2]: 0.04 mg/kg
- ED50 [3, 4]: 0.31 mg/kg

Compound: Cc1nc2sccn2c(=O)c1CCN1CCC(Nc2nc3ccccc3n2Cc2ccco2)CC1 [Compound 31]
- ED50 [2]: 0.04 mg/kg
- ED50 [3, 4]: 0.02 mg/kg

Compound: OCCn1cnc2c(NCCN3CCC(Nc4nc5ccccc5n4Cc4ccc(F)cc4)CC3)ncnc21 [Compound 93, 6-[[2-[4-[[1-[(4-fluorophenyl)methyl]-1H-benzimidazol-2-yl]amino]-1-piperidinyl]ethyl]amino]-9H-purine-9-ethanol]
- ED50 [2]: 0.08 mg/kg
- ED50 [3, 4]: 0.16 mg/kg

Compound: Cc1nc2scc(C)n2c(=O)c1CCN1CCC(Nc2nc3ccccc3n2Cc2ccco2)CC1 [Compound 9]
- ED50 [2]: 0.08 mg/kg
- ED50 [3, 4]: 0.16 mg/kg

Compound: Cc1nc2scc(C)n2c(=O)c1CCN1CCC(Nc2nc3cccnc3n2Cc2ccco2)CC1 [Compound 10]
- ED50 [2]: 0.08 mg/kg
- ED50 [3, 4]: 0.16 mg/kg
